From publication PMC10518257 (Nature Cancer, 2023)
Values joined by “and” are separate entries in the source; they are usually repeats but may differ in a detail not shown here. Equal values may be shown once. Read-outs that look alike come from different tables or passages of the source.

Assays:
[1] = Pharmacokinetic analysis of vepafestinib in rats (microdialysis PFC, CSF, plasma); format: in vivo, male Han Wistar rats; conditions: for concentration at 480 min: read-out: Concentration in Cerebrospinal fluid
[2] = biological target: T1, panel of 255 (vepafestinib) or 256 (all other inhibitors) recombinant kinases (Homo sapiens, UniProt P17252); test: Kinase selectivity profiling at a single concentration (Carna Biosciences); format: biochemical; conditions: 23 nM
T1 construct: purchased Carna Biosciences

[3] = biological target: T2, panel of 255 (vepafestinib) or 256 (all other inhibitors) recombinant kinases (Homo sapiens, UniProt P07948); test: as above; format: biochemical; conditions: 23 nM
T2 construct: purchased Carna Biosciences
T2 sequence (P07948 whole entry): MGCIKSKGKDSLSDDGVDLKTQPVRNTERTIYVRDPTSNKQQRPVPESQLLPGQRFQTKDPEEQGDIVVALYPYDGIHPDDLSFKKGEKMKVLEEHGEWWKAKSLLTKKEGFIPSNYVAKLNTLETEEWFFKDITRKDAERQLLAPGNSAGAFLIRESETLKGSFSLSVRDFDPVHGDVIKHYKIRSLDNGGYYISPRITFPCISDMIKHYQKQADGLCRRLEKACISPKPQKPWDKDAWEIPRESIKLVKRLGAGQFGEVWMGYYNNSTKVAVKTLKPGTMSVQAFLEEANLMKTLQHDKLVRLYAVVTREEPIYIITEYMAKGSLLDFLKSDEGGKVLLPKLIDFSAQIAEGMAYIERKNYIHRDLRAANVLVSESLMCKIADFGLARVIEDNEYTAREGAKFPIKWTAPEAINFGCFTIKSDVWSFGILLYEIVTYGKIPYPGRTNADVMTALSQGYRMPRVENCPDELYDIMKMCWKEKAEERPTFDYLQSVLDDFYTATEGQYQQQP

[4] = biological target: T3, panel of 255 (vepafestinib) or 256 (all other inhibitors) recombinant kinases (Homo sapiens, UniProt Q9P286); test: as above; format: biochemical; conditions: 23 nM
T3 construct: purchased Carna Biosciences
T3 sequence (Q9P286 whole entry): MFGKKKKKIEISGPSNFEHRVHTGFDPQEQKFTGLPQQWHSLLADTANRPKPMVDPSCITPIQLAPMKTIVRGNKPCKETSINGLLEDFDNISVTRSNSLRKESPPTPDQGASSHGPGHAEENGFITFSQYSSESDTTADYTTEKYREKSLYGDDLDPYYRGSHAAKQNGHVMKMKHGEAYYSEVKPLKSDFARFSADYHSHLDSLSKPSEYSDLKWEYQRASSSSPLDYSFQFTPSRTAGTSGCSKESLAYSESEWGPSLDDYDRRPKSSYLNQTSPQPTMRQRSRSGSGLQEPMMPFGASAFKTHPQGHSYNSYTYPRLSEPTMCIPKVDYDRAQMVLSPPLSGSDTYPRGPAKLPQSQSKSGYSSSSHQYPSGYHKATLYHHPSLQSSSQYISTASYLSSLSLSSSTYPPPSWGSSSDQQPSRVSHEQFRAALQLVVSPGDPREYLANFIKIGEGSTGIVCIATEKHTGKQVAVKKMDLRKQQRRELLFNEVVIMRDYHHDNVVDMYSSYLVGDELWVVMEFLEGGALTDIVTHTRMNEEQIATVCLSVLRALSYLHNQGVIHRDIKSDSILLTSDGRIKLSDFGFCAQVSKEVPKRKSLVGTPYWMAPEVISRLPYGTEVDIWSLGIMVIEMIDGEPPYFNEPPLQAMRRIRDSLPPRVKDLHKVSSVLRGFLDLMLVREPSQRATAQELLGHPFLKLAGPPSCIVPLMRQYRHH

[5] = biological target: T4, panel of 255 (vepafestinib) or 256 (all other inhibitors) recombinant kinases (Homo sapiens, UniProt P42684); test: as above; format: biochemical; conditions: 23 nM
T4 construct: purchased Carna Biosciences
T4 sequence (P42684 whole entry): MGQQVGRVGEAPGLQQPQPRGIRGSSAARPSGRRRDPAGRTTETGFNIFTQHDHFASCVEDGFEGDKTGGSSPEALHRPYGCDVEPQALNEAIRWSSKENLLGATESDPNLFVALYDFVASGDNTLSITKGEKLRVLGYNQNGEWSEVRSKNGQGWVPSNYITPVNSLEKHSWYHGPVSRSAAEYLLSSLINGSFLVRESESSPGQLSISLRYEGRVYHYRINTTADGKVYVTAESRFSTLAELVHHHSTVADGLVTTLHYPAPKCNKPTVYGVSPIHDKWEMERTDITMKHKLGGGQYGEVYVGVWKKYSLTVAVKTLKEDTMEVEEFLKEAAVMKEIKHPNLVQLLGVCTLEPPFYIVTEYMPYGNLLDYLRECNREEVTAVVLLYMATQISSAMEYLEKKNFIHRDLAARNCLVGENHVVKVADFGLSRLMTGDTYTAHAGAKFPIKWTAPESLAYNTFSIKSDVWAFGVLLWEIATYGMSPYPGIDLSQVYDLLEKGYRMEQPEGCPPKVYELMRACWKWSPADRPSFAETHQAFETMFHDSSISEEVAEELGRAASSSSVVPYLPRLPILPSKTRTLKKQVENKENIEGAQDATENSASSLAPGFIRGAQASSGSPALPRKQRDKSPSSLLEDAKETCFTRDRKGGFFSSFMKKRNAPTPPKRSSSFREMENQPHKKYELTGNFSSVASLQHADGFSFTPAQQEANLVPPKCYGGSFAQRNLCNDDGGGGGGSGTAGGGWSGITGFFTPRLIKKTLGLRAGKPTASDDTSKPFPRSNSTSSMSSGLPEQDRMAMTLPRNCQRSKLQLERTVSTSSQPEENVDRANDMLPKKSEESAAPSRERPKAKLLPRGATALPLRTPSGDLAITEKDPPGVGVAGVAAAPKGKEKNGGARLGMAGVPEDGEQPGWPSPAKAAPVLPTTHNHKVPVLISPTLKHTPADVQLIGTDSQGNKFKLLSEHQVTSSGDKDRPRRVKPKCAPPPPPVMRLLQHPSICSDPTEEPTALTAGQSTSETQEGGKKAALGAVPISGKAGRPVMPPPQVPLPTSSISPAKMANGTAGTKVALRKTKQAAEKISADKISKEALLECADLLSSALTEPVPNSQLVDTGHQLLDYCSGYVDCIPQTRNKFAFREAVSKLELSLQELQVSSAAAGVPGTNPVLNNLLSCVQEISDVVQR

[6] = system: NIH-3T3 CCDC6-RET luciferase cells implanted intracranially; test: Intracranial efficacy study; format: in vivo, nude mice; conditions: 50 mg per kg BID from day 5 after implantation
[7] = in vivo; conditions: male, BALB/c, mouse, in vivo, po, 50 mg/kg
[8] = system: RET^G810R phosphorylation in Ba/F3 KIF5B–RET^G810R allograft tumors; test: Western blotting of tumors 1 h after dosing (target engagement); format: in vivo, mice; conditions: 10 mg per kg and 30 mg per kg

## COCc1ccc(NC(=O)c2c(C#CCN3CCOCC3)n(C3(C)CC3)c3ncnc(N)c23)cc1 [Vepafestinib, 4-amino-N-[4-(methoxymethyl)phenyl]-7-(1-methylcyclopropyl)-6-[3-(morpholin-4-yl)prop-1-yn-1-yl]-7H-pyrrolo[2,3-d]pyrimidine-5-carboxamide]
[1]; male, Han Wistar, rat, plasma, oral, 50 mg/kg, rats, 50 mg/kg, 60 min, individual animals, read-out: Concentration in Plasma (total)
  concentration at 60 min: 10400 nM
[1]; male, Han Wistar, rat, prefrontal cortex microdialysate, oral, 3 mg/kg, 30 min, individual rats, read-out: Concentration in Rats, Prefrontal cortex
  concentration at 30 min: 7.04 nM
[1]; male, Han Wistar, rat, prefrontal cortex microdialysate, oral, 3 mg/kg, 90 min, individual rats
  concentration at 90 min: 102 nM
[1]; male, Han Wistar, rat, prefrontal cortex microdialysate, oral, 3 mg/kg, 120 min, individual rats, read-out: Concentration in Rats, Prefrontal cortex
  concentration at 120 min: 129 nM
[1]; male, Han Wistar, rat, prefrontal cortex microdialysate, oral, 3 mg/kg, 150 min, individual rats
  concentration at 150 min: 101 nM
[1]; male, Han Wistar, rat, prefrontal cortex microdialysate, oral, 10 mg/kg, 30 min, individual rats, read-out: Concentration in Rats, Prefrontal cortex
  concentration at 30 min: 17.5 nM
[1]; male, Han Wistar, rat, prefrontal cortex microdialysate, oral, 10 mg/kg, 60 min, individual rats, read-out: Concentration in Rats, Prefrontal cortex
  concentration at 60 min: 362 nM
[1]; male, Han Wistar, rat, prefrontal cortex microdialysate, oral, 10 mg/kg, 90 min, individual rats
  concentration at 90 min: 514 nM
[1]; male, Han Wistar, rat, prefrontal cortex microdialysate, oral, 10 mg/kg, 120 min, individual rats, read-out: Concentration in Rats, Prefrontal cortex
  concentration at 120 min: 479 nM
[1]; male, Han Wistar, rat, prefrontal cortex microdialysate, oral, 10 mg/kg, 150 min, individual rats
  concentration at 150 min: 270 nM
[1]; male, Han Wistar, rat, prefrontal cortex microdialysate, oral, 10 mg/kg, 180 min, individual rats, read-out: Concentration in Rats, Prefrontal cortex
  concentration at 180 min: 259 nM
[1]; male, Han Wistar, rat, prefrontal cortex microdialysate, oral, 50 mg/kg, rats, 50 mg/kg, 120 min, individual animals, read-out: Concentration in Prefrontal cortex
  concentration at 120 min: 972 nM
[1]; male, Han Wistar, rat, prefrontal cortex microdialysate, oral, 50 mg/kg, rats, 50 mg/kg, 1500 min, individual animals, read-out: Concentration in Prefrontal cortex
  concentration at 1500 min: 71.6 nM
[1]; male, Han Wistar, rat, prefrontal cortex microdialysate, oral, 50 mg/kg, 120 min, individual rats, read-out: Concentration in Rats, Prefrontal cortex
  concentration at 120 min: 972 nM
[1]; male, Han Wistar, rat, prefrontal cortex microdialysate, oral, 50 mg/kg, 1500 min, individual rats, read-out: Concentration in Rats, Prefrontal cortex
  concentration at 1500 min: 71.6 nM
[1]; rats, 50 mg/kg, 30 min, individual animals, 50 mg/kg
  concentration at 480 min: 1290 nM and 1440 nM and 2760 nM and 1580 nM
[1]; rats, 50 mg/kg, 30 min, individual animals, 50 mg/kg, read-out: Concentration in Plasma (total)
  concentration at 60 min: 15700 nM and 13100 nM and 11800 nM
[1]; rats, 50 mg/kg, 30 min, individual animals, 50 mg/kg, read-out: Concentration in Prefrontal cortex
  concentration at 1500 min: 30.2 nM and 10.2 nM and 22.2 nM and 39.9 nM
[1]; rats, 50 mg/kg, 60 min, individual animals, 50 mg/kg
  concentration at 480 min: 648 nM and 1420 nM and 2370 nM and 1210 nM
[1]; rats, 50 mg/kg, 60 min, individual animals, 50 mg/kg, read-out: Concentration in Plasma (total)
  concentration at 60 min: 11900 nM and 11400 nM and 11800 nM
[1]; rats, 50 mg/kg, 60 min, individual animals, 50 mg/kg, read-out: Concentration in Prefrontal cortex
  concentration at 1500 min: 883 nM and 396 nM and 691 nM and 1135 nM
[1]; rats, 50 mg/kg, 90 min, individual animals, 50 mg/kg, read-out: Concentration in Prefrontal cortex
  concentration at 1500 min: 1549 nM and 742 nM and 1277 nM and 1593 nM
[1]; rats, 50 mg/kg, 120 min, individual animals, 50 mg/kg
  concentration at 480 min: 1780 nM and 1160 nM and 2340 nM and 756 nM
[1]; rats, 50 mg/kg, 120 min, individual animals, 50 mg/kg, read-out: Concentration in Plasma (total)
  concentration at 60 min: 16400 nM and 8330 nM and 13200 nM
[1]; rats, 50 mg/kg, 120 min, individual animals, 50 mg/kg, read-out: Concentration in Prefrontal cortex
  concentration at 1500 min: 1089 nM and 1363 nM and 1680 nM
[1]; rats, 50 mg/kg, 150 min, individual animals, 50 mg/kg, read-out: Concentration in Prefrontal cortex
  concentration at 1500 min: 804 nM and 1293 nM and 1118 nM and 1680 nM
[1]; rats, 50 mg/kg, 180 min, individual animals, 50 mg/kg, read-out: Concentration in Plasma (total)
  concentration at 60 min: 6200 nM and 14400 nM and 6310 nM and 8540 nM
[1]; rats, 50 mg/kg, 180 min, individual animals, 50 mg/kg, read-out: Concentration in Prefrontal cortex
  concentration at 1500 min: 761 nM and 1438 nM and 957 nM and 2162 nM
[1]; rats, 50 mg/kg, 210 min, individual animals, 50 mg/kg, read-out: Concentration in Prefrontal cortex
  concentration at 1500 min: 555 nM and 1724 nM and 852 nM and 1666 nM
[1]; rats, 50 mg/kg, 240 min, individual animals, 50 mg/kg
  concentration at 480 min: 1730 nM and 963 nM and 1170 nM and 522 nM
[1]; rats, 50 mg/kg, 240 min, individual animals, 50 mg/kg, read-out: Concentration in Plasma (total)
  concentration at 60 min: 3870 nM and 13700 nM and 7630 nM and 7250 nM
[1]; rats, 50 mg/kg, 240 min, individual animals, 50 mg/kg, read-out: Concentration in Prefrontal cortex
  concentration at 1500 min: 463 nM and 1651 nM and 722 nM and 1680 nM
[1]; rats, 50 mg/kg, 270 min, individual animals, 50 mg/kg, read-out: Concentration in Prefrontal cortex
  concentration at 1500 min: 359 nM and 1856 nM and 877 nM and 1281 nM
[1]; rats, 50 mg/kg, 300 min, individual animals, 50 mg/kg, read-out: Concentration in Plasma (total)
  concentration at 60 min: 4840 nM and 9390 nM and 5350 nM and 4540 nM
[1]; rats, 50 mg/kg, 360 min, individual animals, 50 mg/kg, read-out: Concentration in Plasma (total)
  concentration at 60 min: 5830 nM and 7730 nM and 5370 nM and 2620 nM
[1]; rats, 50 mg/kg, 480 min, individual animals, 50 mg/kg
  concentration at 480 min: 435 nM and 486 nM and 321 nM
[1]; rats, 50 mg/kg, 480 min, individual animals, 50 mg/kg, read-out: Concentration in Plasma (total)
  concentration at 60 min: 134 nM and 4450 nM and 4860 nM and 4260 nM
[1]; rats, 50 mg/kg, 1500 min, individual animals, 50 mg/kg, read-out: Concentration in Prefrontal cortex
  concentration at 1500 min: 123 nM
[2]
  % Inhibiton PKCα: 9.1%
[3]
  % Inhibiton LYNa: 6.7%
[4]
  % Inhibiton PAK5: 10.8%
[5]
  % Inhibiton ARG: 7.3%
[6]
  median survival: 52 days
[7]
  Kp: 1.8
  Kp uu: 1.3
[8]
  inhibition of RET^G810R phosphorylation in tumors: completely inhibited
